Data published in patent US9051273B2, “Phosphodiesterase 4 inhibitor capable of avoiding vomiting” (priority 2012, dated 2015).

Experiments:
[1] = tested on: mice with scopolamine-induced cognitive deficits; test: Morris water maze, learning and memory with scopolamine-induced cognitive deficits in mice; assay type: in vivo, kunming mice; settings: administered 1 week, space exploration on fifth day, X ± S
Experimental: 1. The effects of the new PDE4 inhibitor III-3 on the learning and memory with scopolamine-induced cognitive deficits in mice
After being continuously administered with veh or compounds for 1 week, the behavioral tests are determined by Morris water maze. 20 minutes before test, saline is given into the blank control mice through intraperitoneal injection, while scopolamine is intraperitoneally injected to the other five groups. These mice are continuously trained for 4 days, and the space exploration experiment is performed on the fifth day for recording the latency to target quadrant, the number of crossing and retention time in the target quadrant during the test period of each mice.

[2] = tested on: beagle dogs; test: Potential vomiting effects (emesis) in beagle dogs; assay type: in vivo; settings: observation 120 minutes
Experimental: 2. Preliminary assessing the potential vomiting effects of new PDE4 inhibitor III-3
The potential vomiting observation time is 120 minutes after the oral administration. The latency was determined by the interval time from the oral administration of the drugs to the nausea, retching, a lot of salivation and vomiting of gastric contents. The incidence of emesis was also recorded.

[3] = target: PDE4D4 (Homo sapiens, UniProt Q08499); test: Phosphodiesterase 4 inhibitory activity test (IMAP fluorescence polarization), PDE4D4; assay type: biochemical; settings: Table 1
PDE4D4, sequence (Q08499 whole entry): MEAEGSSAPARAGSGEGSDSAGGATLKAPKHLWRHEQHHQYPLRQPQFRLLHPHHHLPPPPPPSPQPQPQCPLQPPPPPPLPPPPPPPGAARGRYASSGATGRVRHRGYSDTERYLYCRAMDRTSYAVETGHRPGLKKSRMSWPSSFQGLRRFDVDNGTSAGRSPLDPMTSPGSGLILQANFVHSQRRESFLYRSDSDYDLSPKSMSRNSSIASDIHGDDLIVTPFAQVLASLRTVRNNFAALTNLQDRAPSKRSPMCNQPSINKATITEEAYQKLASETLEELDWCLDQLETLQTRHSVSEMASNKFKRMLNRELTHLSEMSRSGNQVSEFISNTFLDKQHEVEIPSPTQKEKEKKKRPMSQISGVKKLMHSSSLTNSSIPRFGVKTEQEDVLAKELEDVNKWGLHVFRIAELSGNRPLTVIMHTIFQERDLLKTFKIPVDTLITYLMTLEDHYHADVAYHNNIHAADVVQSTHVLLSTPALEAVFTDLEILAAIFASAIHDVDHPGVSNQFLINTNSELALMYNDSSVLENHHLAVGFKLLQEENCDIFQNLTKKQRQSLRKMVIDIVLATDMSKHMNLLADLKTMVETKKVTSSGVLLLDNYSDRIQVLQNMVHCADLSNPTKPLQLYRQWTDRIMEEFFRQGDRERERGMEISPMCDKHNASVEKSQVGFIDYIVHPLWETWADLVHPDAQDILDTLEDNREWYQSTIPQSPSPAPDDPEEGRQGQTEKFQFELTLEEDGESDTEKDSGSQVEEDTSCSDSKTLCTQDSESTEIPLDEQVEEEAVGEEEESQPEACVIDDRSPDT
Excerpt: (§1) Phosphodiesterase 4 inhibitory activity test utilizes IMAP technology, which is called immobilized metal ion affinity-based fluorescence polarization and provide a stable and accurate approach for determining the inhibitory potential of compounds.

[4] = target: PDE4D5 (Homo sapiens, UniProt Q08499); test: Phosphodiesterase 4 inhibitory activity test (IMAP fluorescence polarization), PDE4D5; assay type: biochemical; settings: Table 1
PDE4D5, sequence (Q08499 1-745 isoform Q08499-6): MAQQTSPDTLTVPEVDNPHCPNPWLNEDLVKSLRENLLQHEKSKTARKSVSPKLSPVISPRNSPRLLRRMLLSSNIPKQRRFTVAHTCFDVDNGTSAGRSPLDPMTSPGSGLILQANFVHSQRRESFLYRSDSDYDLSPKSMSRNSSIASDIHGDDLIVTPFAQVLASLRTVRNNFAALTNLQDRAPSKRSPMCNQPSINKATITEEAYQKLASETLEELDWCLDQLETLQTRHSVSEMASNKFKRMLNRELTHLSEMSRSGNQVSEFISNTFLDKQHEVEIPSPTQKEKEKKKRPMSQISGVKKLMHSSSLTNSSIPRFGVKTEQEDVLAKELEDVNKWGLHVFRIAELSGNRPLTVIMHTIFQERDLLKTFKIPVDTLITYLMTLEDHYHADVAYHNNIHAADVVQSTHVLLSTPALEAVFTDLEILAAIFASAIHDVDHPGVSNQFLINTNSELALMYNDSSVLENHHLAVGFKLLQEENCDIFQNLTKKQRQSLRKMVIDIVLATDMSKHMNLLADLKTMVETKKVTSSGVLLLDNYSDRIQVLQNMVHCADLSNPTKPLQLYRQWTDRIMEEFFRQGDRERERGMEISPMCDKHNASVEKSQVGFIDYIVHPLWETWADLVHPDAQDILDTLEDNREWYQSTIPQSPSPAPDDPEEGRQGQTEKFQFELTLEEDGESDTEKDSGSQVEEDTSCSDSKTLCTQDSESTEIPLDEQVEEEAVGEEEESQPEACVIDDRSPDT
Excerpt: as §1

[5] = scopolamine + Rolipram 0.5 mg/kg

Compound	IC50 [3]	IC50 [4]	further results
COc1ccc(C2CNC(=O)C2)cc1OC1CCCC1 (centres unmarked) [Rolipram, reference compound]	–	–	Latency to target quadrant (t/s) [1, 5]: 16.09 ± 3.29 s; Retention time in target quadrant time (t/s) [1, 5]: 38.34 ± 3.65 s; The number of crossing target quadrant [1, 5]: 6.89 ± 0.59; Incidence of emesis ([2]; 0.5 mg/kg oral gavage): 6/6; Latency period (min) of emesis ([2]; 0.5 mg/kg oral gavage): 10.67 ± 2.68 min
COc1ccc(Cn2ncc(Cl)c(Cl)c2=O)cc1-c1cccc(Cl)c1 [III-1]	22.4 µM	8.32 µM	–
COc1ccc(Cn2nc(N3CCN(c4ccccc4Cl)CC3)ccc2=O)cc1-c1cccc(Cl)c1 [III-2]	137 µM	110 µM	–
COc1ccc(CN2CCN(c3ccccc3OC)CC2)cc1-c1cccc(Cl)c1 [II-1]	115 µM	83.7 µM	–
COc1ccccc1OCCNc1ccc(=O)n(Cc2ccc(OC)c(-c3cccc(Cl)c3)c2)n1 [III-3]	7.82 µM	8.48 µM	Latency to target quadrant (t/s) ([1]; scopolamine + III-3 0.2 mg/kg): 9.96 ± 2.32 s; Retention time in target quadrant time (t/s) ([1]; scopolamine + III-3 0.2 mg/kg): 42.78 ± 4.56 s; The number of crossing target quadrant ([1]; scopolamine + III-3 0.2 mg/kg): 6.67 ± 1.29; Incidence of emesis ([2]; 1.0 mg/kg oral): 0/3; Latency period (min) of emesis ([2]; 1.0 mg/kg oral): >120 min
COc1ccc(CN2CCN(c3ccccc3Cl)CC2)cc1-c1cccc(Cl)c1 [II-2]	141 µM	50.9 µM	–
